In US9102719B2, “SOGA polynucleotides and polypeptides and uses thereof” (University of North Carolina at Chapel Hill, priority 2009, dated 2015):

Tests used:
[1] = tested on: SOGA; assay type: cell-based, mouse
Protocol: (§1) Mouse livers were perfused with a Krebs-Ringer-HEPES buffer containing collagenase (Sigma-Aldrich). Livers were isolated and cells were dispersed by gentle shaking and filtered through sterile nylon gauze. Cells were washed twice with sterile phosphate-buffered saline and purified by centrifugation in 50% isotonic Percoll (Sigma-Aldrich). Cells were resuspended with Krebs-Ringer-HEPES+Ca^2+ buffer to a total volume of 10 ml. Viability was validated via trypan blue exclusion and routinely exceeded 90%. Freshly isolated mouse hepatocytes were plated at 10^5 cells per well in 12-well culture plates coated with rat tail collagen I (BD Biosciences). […] SOGA siRNA, AICAR (500 μM) or […] (10 nM) were introduced to the media 48 hours before the measurement of glucose production. siRNA sequences corresponding to base pairs 333-351 and 1988-2007 on the open reading frame of murine SOGA were selected using a rational design algorithm (Invitrogen). […] Glucose was measured by colorimetric assay (Autokit Glucose CII) (Brooks et al., J. Biol. Chem. 282:35069 (2007)). Valine in the medium was measured by a UPLC (Waters) coupled TSQ-Quantum ultra triple quad mass analyzer (ThermoFinigan) in the Biomarkers Facility Core at UNC. Valine was measured in selected reaction monitoring mode (SRM) using the MS/MS transition of 118→72.

[2] = tested on: ob/ob mice; assay: Pioglitazone treatment of diabetic ob/ob mice; assay type: in vivo, mouse; conditions: after 4 days of treatment
Protocol: Mice were housed in ventilated isolator cage systems in a pathogen-free barrier facility maintained at 23° C., 55% humidity on a 12-h light/12-h dark cycle. Mice received a standard chow diet consisting of 73% carbohydrate, 18% protein, 4% fat and 5% ash (Purina). Young (3-6 month old) female C57B1/6J calorie restricted (CR) and ad libitum fed (AL) mice were maintained as previously described (Combs et al., Diabetes 52:268 (2003)). Adjustments were made to ensure that CR mice received 70% of the ad libitum food intake. Blood samples were collected at 1300 from the tail tip using heparinized capillary tubes (Fisher) and stored at −20° C. Male ob/ob mice (FVB background strain) received a daily dose of pioglitazone at 0.6 mg/kg BW in 0.025% (w/w) carboxymethylcellulose by oral gavage for 4 days. Control mice received carboxymethylcellulose by oral gavage for 4 days. Blood was collected from the tail tip on day 5 and analyzed for glucose, adiponectin and 25 kDa SOGA. Immediately after the collection of blood samples, ob/ob mice were sacrificed by cervical dislocation for tissue collection. Northern blot analysis for SOGA mRNA and 18S RNA was performed using 20 μg of liver RNA. NOD mice were bred and housed as previously described (Wong et al., J. Immunol. 176:1637 (2006)). Where indicated, diabetic NOD mice were injected with 5 units of insulin (NPH Human Insulin, Isophane Suspension; 100 U/ml Novolin; Novo Nordisk) 24 hours prior to blood collection. Adiponectin transgenic mice were produced as previously described (Combs et al., Endocrinology 145:367 (2004)). Glucose was measured by colorimetric assay. Adiponectin and SOGA were measured by SDS-PAGE analysis using 1 μl of plasma. […] Experimental procedures were approved by IACUC.

[3] = tested on: NOD mice; assay: Insulin injection in diabetic NOD mice; assay type: in vivo, mouse; conditions: single injection of insulin 24 hours earlier
Protocol: Mice were housed in ventilated isolator cage systems in a pathogen-free barrier facility maintained at 23° C., 55% humidity on a 12-h light/12-h dark cycle. Mice received a standard chow diet consisting of 73% carbohydrate, 18% protein, 4% fat and 5% ash (Purina). Young (3-6 month old) female C57B1/6J calorie restricted (CR) and ad libitum fed (AL) mice were maintained as previously described (Combs et al., Diabetes 52:268 (2003)). Adjustments were made to ensure that CR mice received 70% of the ad libitum food intake. Blood samples were collected at 1300 from the tail tip using heparinized capillary tubes (Fisher) and stored at −20° C. Male ob/ob mice (FVB background strain) received a daily dose of pioglitazone at 0.6 mg/kg BW in 0.025% (w/w) carboxymethylcellulose by oral gavage for 4 days. Control mice received carboxymethylcellulose by oral gavage for 4 days. Blood was collected from the tail tip on day 5 and analyzed for glucose, adiponectin and 25 kDa SOGA. Immediately after the collection of blood samples, ob/ob mice were sacrificed by cervical dislocation for tissue collection. Northern blot analysis for SOGA mRNA and 18S RNA was performed using 20 μg of liver RNA. NOD mice were bred and housed as previously described (Wong et al., J. Immunol. 176:1637 (2006)). […] Glucose was measured by colorimetric assay. Adiponectin and SOGA were measured by SDS-PAGE analysis using 1 μl of plasma. […]

[4] = tested on: primary murine hepatocytes; assay: Hepatocyte glucose production (colorimetric assay); assay type: cell-based, mouse; conditions: adiponectin exposure (adipocyte conditioned media)
Protocol: as §1

`NC(=O)c1ncn([C@@H]2O[C@H](CO)[C@@H](O)[C@H]2O)c1N` [AICAR, N1-(β-D-ribofuranosyl)-5-aminoimidazole-4-carboxamide] was tested. Which “effect on SOGA level (intracellular and extracellular)” value ([1]; 500 μM AICAR, with or without adiponectin, n=4 per group) did it give?
Its value is “decrease in SOGA that was blocked by adiponectin exposure”.

With `CCc1ccc(CCOc2ccc(CC3SC(=O)NC3=O)cc2)nc1` (centres unmarked) [Pioglitazone, pioglitazone] as the molecule, how does the “concentration of plasma glucose” value ([2]; untreated ob/ob mice 450±18 mg/dl, p<0.05) read?
The value was 155 ± 8 mg/dL.

What about the “elevation of circulating adiponectin” value ([2]; daily oral gavage) of the same molecule?
The value was 3 fold.

And the “increase of SOGA mRNA in the liver” value ([2]; daily oral gavage, SOGA mRNA/18S RNA)?
The value was 40%.

What about the “elevation of circulating SOGA” value ([2]; daily oral gavage, plasma 25 kDa SOGA) of the same molecule?
The value was 3 fold.

Which “induction of SOGA (circulating 25 kDa SOGA)” value [3] does the source give for “insulin: NPH Human Insulin, Isophane Suspension (Novolin; Novo Nordisk)” here?
The value was 2 fold.

B1: Adiponectin: hormone provided from adipocyte conditioned media with or without adiponectin (protein, UniProt Q15848 19-244, looked up)
Adiponectin: ETTTQGPGVLLPLPKGACTGWMAGIPGHPGHNGAPGRDGRDGTPGEKGEKGDPGLIGPKGDIGETGVPGAEGPRGFPGIQGRKGEPGEGAYVYRSAFSVGLETYVTIPNMPIRFTKIFYNQQNHYDGSTGKFHCNIPGLYYFAYHITVYMKDVKVSLFKKDKAMLFTYDQYQENNVDQASGSVLLHLEVGDQVWLQVYGEGERNGLYADNDNDSTFTGFLLYHDTN
modifications: in adipocyte conditioned media
Which results are given for B1?
reduction in glucose production [4]: 50%; increase of SOGA in primary hepatocytes [1]: 40%
